# Experimental data published in US20150045551A1, “FUSED AZOLE DERIVATIVE” (TAISHO PHARMACEUTICAL CO., LTD, priority 2012, published 2015).
# pIC50: −log10 of the molar value.
# Legend:
# Human V1b receptor [1] = target: T1, Human V1b receptor (Homo sapiens, UniProt P47901); assay: Measurement of V1b receptor antagonistic activity (AVP-induced Fluo-4 fluorescence, FDSS); assay type: cell-based; design: expressed in transfected cells; settings: CHO cells stably expressing human V1b receptor; AVP 2.5 nmol/L; 30 minutes preincubation with test compound
# T1 sequence (P47901 1-424): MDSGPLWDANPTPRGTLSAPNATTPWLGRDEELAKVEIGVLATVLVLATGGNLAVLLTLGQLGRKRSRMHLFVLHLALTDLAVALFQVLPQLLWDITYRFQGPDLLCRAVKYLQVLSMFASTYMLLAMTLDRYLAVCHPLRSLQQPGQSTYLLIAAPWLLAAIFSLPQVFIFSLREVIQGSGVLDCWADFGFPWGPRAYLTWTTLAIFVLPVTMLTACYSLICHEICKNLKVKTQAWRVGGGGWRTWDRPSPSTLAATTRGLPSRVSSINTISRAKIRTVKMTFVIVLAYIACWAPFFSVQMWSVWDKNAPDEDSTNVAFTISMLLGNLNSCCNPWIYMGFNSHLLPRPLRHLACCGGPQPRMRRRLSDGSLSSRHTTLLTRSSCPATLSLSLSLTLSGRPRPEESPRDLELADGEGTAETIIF
# Experimental: CHO cells so modified as to express human V1b receptor in a stable manner were cultured in Ham's F-12 medium (containing 10% FBS and 0.5 mg/mL Geneticin). On the day before the test, seeding was conducted at a density of 20,000 cells/well in a 96-well poly-D-lysine coated black plate. On the day of the test, the culture medium was removed, and a loading solution (1×HBSS, 10 mmol/L HEPES, 0.1% bovine serum albumin, 1.25 mmol/L Probenecid, 0.02% Pluronic F-127, 1.5 μmol/L Fluo-4-AM, pH 7.4) was added to each well, followed by incubation in a CO2 incubator for an hour. After the incubation, the loading solution was removed. A test solution (1×HBSS, 10 mmol/L HEPES, 0.1% bovine serum albumin, 1.25 mmol/L Probenecid, pH 7.4) containing any one of test compounds was added to wells, followed by incubation in a CO2 incubator for 30 minutes. The test compound was serially diluted with DMSO so that it would have final concentrations of 0.1 nmol/L to 1 μmol/L at the time of assaying. After the incubation, fluorescence intensity levels were measured and AVP added by means of FDSS (Hamamatsu Photonics K.K.); AVP was added to give a final concentration of 2.5 nmol/L at the time of assaying. […] The fluorescence level in a well to which neither test compound nor AVP was added was defined as 0%, and the fluorescence level in a well to which only AVP was added and no test compound was added was defined as 100%. A dose-response curve was plotted from fluorescence levels after the addition of AVP in the presence of a test compound at various concentrations, and the 50% inhibitory concentration (IC50 value) of the compound was calculated.
# Human V1b receptor [2] = target: T1, Human V1b receptor; assay: Binding test for V1b receptor ([3H]AVP displacement, crude membrane preparation); design: expressed in transfected cells; host or cells: 293FT cells (transient expression); settings: [3H]AVP 0.4 to 1 nmol/L; membranes of 293FT cells transiently expressing human V1b receptor; room temperature, 60 minutes
# Experimental: Human V1b receptor was transiently expressed in 293FT cells, which were then recovered and homogenated in a 15 mmol/L tris-hydrochloric acid buffer (pH 7.4 and containing 2 mmol/L magnesium chloride, 0.3 mmol/L ethylenediaminetetracetic acid, and 1 mmol/L glycol ether diaminetetraacetic acid). The resulting homogenate was centrifuged at 50,000×g at 4 ° C. for 20 minutes. The precipitate was resuspended in a 75 mmol/L tris-hydrochloric acid buffer (pH 7.4 and containing 12.5 mmol/L magnesium chloride, 0.3 mmol/L ethylenediaminetetracetic acid, 1 mmol/L glycol ether diaminetetraacetic acid, and 250 mmol/L sucrose) to give a crude membrane preparation, which was stored at −80° C. until the binding test was initiated. In the binding test, the crude membrane preparation was diluted with a 50 mmol/L tris-hydrochloric acid buffer (pH 7.4 and containing 10 mmol/L magnesium chloride and 0.1% bovine serum albumin) and mixed with each test compound and [^3H]AVP (final concentration: 0.4 to 1 nmol/L), followed by incubation at room temperature for 60 minutes. The test compound was serially diluted with DMSO so that it would have final concentrations of 0.01 nmol/L to […] at the time of mixing. After the incubation, the mixture was suction filtered through a GF/C filter that was preliminarily impregnated with 0.3% polyethyleneimine. The GF/C filter was dried and after adding a scintillator, the residual radioactivity on the filter was measured using TopCount (PerkinElmer Inc.). The radioactivity in the presence of unlabeled AVP at 10 μmol/L was defined as 0%, and the radioactivity in the absence of unlabeled AVP was defined as 100%. A dose-response curve was plotted from radioactivities in the presence of a test compound at various concentrations, and the 50% inhibitory concentration (IC50 value) of the test compound was calculated.
structure (smiles),measurement,setting,value
"CC(C)NC(=O)Cn1c(-c2cccc(Cl)c2)nc2cc(OCCCN3CCCCC3)ccc21 [Example A-1, 2-{2-(3-chlorophenyl)-5-[3-(piperidin-1-yl)propoxy]-1H-benzimidazol-1-yl}-N-isopropyl acetamide]",pIC50,Human V1b receptor [1],6.67
same,pIC50,Human V1b receptor [2],7.84
"COc1cc(-c2nc3cc(OCCCN4CCCCC4)ccc3n2CC(=O)NC(C)C)ccc1F [Example A-5, 2-{2-(4-fluoro-3-methoxyphenyl)-5-[3-(piperidin-1-yl)propoxy]-1H-benzimidazol-1-yl}-N-isopropyl acetamide]",pIC50,Human V1b receptor [1],6.91
same,pIC50,Human V1b receptor [2],7.36
"COc1cc(-c2nc3cc(OCCCN4CCOCC4)ccc3n2CC(=O)NC(C)C)ccc1F [Example A-6, 2-{2-(4-fluoro-3-methoxyphenyl)-5-[3-(morpholin-4-yl)propoxy]-1H-benzimidazol-1-yl}-N-isopropyl acetamide]",pIC50,Human V1b receptor [1],7.59
same,pIC50,Human V1b receptor [2],7.53
"COc1cc(-c2nc3cc(-c4cc(Cl)cc(CN(C)C)c4)ccc3n2CC(=O)NC(C)C)ccc1F [Example A-9, 2-[5-{3-chloro-5-[(dimethylamino)methyl]phenyl}-2-(4-fluoro-3-methoxyphenyl)-1H-benzimidazol-1-yl]-N-isopropyl acetamide]",pIC50,Human V1b receptor [1],7.00
same,pIC50,Human V1b receptor [2],8.59
"CC(C)NC(=O)Cn1c(-c2ccc(F)c(Cl)c2)nc2cc(OCCCN3CCCCC3)ccc21 [Example A-11, 2-{2-(3-chloro-4-fluorophenyl)-5-[3-(piperidin-1-yl)propoxy]-1H-benzimidazol-1-yl}-N-isopropyl acetamide]",pIC50,Human V1b receptor [1],7.06
"CC(C)NC(=O)Cn1c(-c2ccc(F)c(Cl)c2)nc2cc(OCCCN3CCCCCC3)ccc21 [Example A-13, 2-{5-[3-(azepan-1-yl)propoxy]-2-(3-chloro-4-fluorophenyl)-1H-benzimidazol-1-yl}-N-isopropyl acetamide]",pIC50,Human V1b receptor [1],7.20
same,pIC50,Human V1b receptor [2],7.48
"CC(C)NC(=O)Cn1c(-c2ccc(F)c(Cl)c2)nc2cc(OCCCN3CCOCC3)ccc21 [Example A-14, 2-{2-(3-chloro-4-fluorophenyl)-5-[3-(morpholin-4-yl)propoxy]-1H-benzimidazol-1-yl}-N-isopropyl acetamide]",pIC50,Human V1b receptor [1],7.27
same,pIC50,Human V1b receptor [2],7.90
"CC(C)NC(=O)Cn1c(-c2cccc(Cl)c2)cc2cc(OCCCN3CCCCC3)ccc21 [Example B-1, 2-{2-(3-chlorophenyl)-5-[3-(piperidin-1-yl)propoxy]-1H-indol-1-yl}-N-isopropyl acetamide]",pIC50,Human V1b receptor [1],7.01
same,pIC50,Human V1b receptor [2],8.06
"CC(C)NC(=O)Cn1c(-c2ccc(F)c(Cl)c2)cc2cc(OCCCN3CCCCC3)ccc21 [Example B-4, 2-{2-(3-chloro-4-fluorophenyl)-5-[3-(piperidin-1-yl)propoxy]-1H-indol-1-yl}-N-isopropyl acetamide]",pIC50,Human V1b receptor [1],7.66
same,pIC50,Human V1b receptor [2],8.31
"CC(C)NC(=O)Cn1c(-c2ccc(F)c(Cl)c2)cc2cc(OCCCN3CCOCC3)ccc21 [Example B-5, 2-{2-(3-chloro-4-fluorophenyl)-5-[3-(morpholin-4-yl)propoxy]-1H-indol-1-yl}-N-isopropyl acetamide]",pIC50,Human V1b receptor [1],8.10
same,pIC50,Human V1b receptor [2],8.05
"CC(C)NC(=O)Cn1c(-c2cccc(Cl)c2)cc2cc(OCCCN3CC4(COC4)C3)ccc21 [Example B-9, 2-{2-(3-chlorophenyl)-5-[3-(2-oxa-6-azaspiro[3.3]hept-6-yl)propoxy]-1H-indol-1-yl}-N-isopropyl acetamide]",pIC50,Human V1b receptor [1],7.67
same,pIC50,Human V1b receptor [2],8.28
"COc1cc(-c2cc3cc(OCCCN4CCC[C@H]4C)ccc3n2CC(=O)NC(C)C)ccc1F [Example B-16, 2-[2-(4-fluoro-3-methoxyphenyl)-5-{3-[(2R)-2-methylpyrrolidin-1-yl]propoxy}-1H-indol-1-yl]-N-isopropyl acetamide]",pIC50,Human V1b receptor [2],6.78
"CC(C)NC(=O)Cn1c(-c2ccc(F)c(Cl)c2)cc2cc(OC3CCN(C4CCCC4)CC3)ccc21 [Example B-17, 2-{2-(3-chloro-4-fluorophenyl)-5-[(1-cyclopentylpiperidin-4-yl)oxy]-1H-indol-1-yl}-N-isopropyl acetamide]",pIC50,Human V1b receptor [1],8.22
same,pIC50,Human V1b receptor [2],9.07
"CC(C)NC(=O)Cn1c(-c2cccc(Cl)c2)cc2cc(CCCCN3CCCCC3)ccc21 [Example B-18, 2-{2-(3-chlorophenyl)-5-[4-(piperidin-1-yl)butyl]-1H-indol-1-yl}-N-isopropyl acetamide]",pIC50,Human V1b receptor [2],7.70
"COc1cncc(-c2cc3cc(OCCCN4CCCCC4)ccc3n2CC(=O)NC(C)C)c1 [Example B-19, N-isopropyl-2-{2-(5-methoxypyridin-3-yl)-5-[3-(piperidin-1-yl)propoxy]-1H-indol-1-yl}acetamide]",pIC50,Human V1b receptor [2],6.41
"COc1cccc(-c2cc3cc(OCCCN4CCCCC4)ccc3n2CC(=O)NC(C)C)c1 [Example B-20, N-isopropyl-2-{2-(3-methoxyphenyl)-5-[3-(piperidin-1-yl)propoxy]-1H-indol-1-yl}acetamide]",pIC50,Human V1b receptor [2],6.89
"CC(C)NC(=O)Cn1c(-c2cccc(Cl)c2)cc2cc(OCCCN3CCCCC3)cnc21 [Example B-21, 2-{2-(3-chlorophenyl)-5-[3-(piperidin-1-yl)propoxy]-1H-pyrrolo[2,3-b]pyridin-1-yl}-N-isopropyl acetamide]",pIC50,Human V1b receptor [1],7.29
same,pIC50,Human V1b receptor [2],7.67
"CC(C)NC(=O)Cn1c(-c2cccc(Cl)c2)cc2nc(OCCCN3CCCCC3)ccc21 [Example B-22, 2-{2-(3-chlorophenyl)-5-[3-(piperidin-1-yl)propoxy]-1H-pyrrolo[3,2-b]pyridin-1-yl}-N-isopropyl acetamide]",pIC50,Human V1b receptor [2],7.33
"CC(C)NC(=O)Cc1c(-c2ccc(F)c(Cl)c2)nc2cc(OCCCN3CCCCC3)ccn12 [Example C-1, 2-{2-(3-chloro-4-fluorophenyl)-7-[3-(piperidin-1-yl)propoxy]imidazo[1,2-a]pyridin-3-yl}-N-isopropyl acetamide]",pIC50,Human V1b receptor [2],7.97
"CC(C)NC(=O)Cc1c(-c2ccc(F)c(Cl)c2)nc2cc(OCCCN3CCOCC3)ccn12 [Example C-2, 2-{2-(3-chloro-4-fluorophenyl)-7-[3-(morpholin-4-yl)propoxy]imidazo[1,2-a]pyridin-3-yl}-N-isopropyl acetamide]",pIC50,Human V1b receptor [2],8.00
"CC(C)NC(=O)Cn1c(=O)c2cc(OCCCN3CCCCC3)ccc2n1-c1cccc(Cl)c1 [Example D-1, 2-{1-(3-chlorophenyl)-3-oxo-5-[3-(piperidin-1-yl)propoxy]-1,3-dihydro-2H-indazol-2-yl}-N-isopropyl acetamide]",pIC50,Human V1b receptor [2],6.43
"CC(C)NC(=O)Cn1c(-c2cccc(Cl)c2)cc2c1CCN(CCCCN1CCCCC1)C2 [Example E-1, 2-{2-(3-chlorophenyl)-5-[4-(piperidin-1-yl)butyl]-4,5,6,7-tetrahydro-1H-pyrrolo[3,2-c]pyridin-1-yl}-N-isopropyl acetamide]",pIC50,Human V1b receptor [2],6.28
"CC(C)NC(=O)Cc1nc2cc(OCCCN3CCCCC3)ccn2c1-c1cccc(Cl)c1 [Example F-1, 2-{3-(3-chlorophenyl)-7-[3-(piperidin-1-yl)propoxy]imidazo[1,2-a]pyridin-2-yl}-N-isopropyl acetamide]",pIC50,Human V1b receptor [2],7.09
